# Laboratory results reported in BindingDB's records for PubMed 39011823 (University of Lille).
# Target: Insulin-regulated aminopeptidase (Homo sapiens)
# Assay: Inhibition of human recombinant IRAP expressed in baculovirus infected Sf9 cells using L-AMC as substrate incubated for 5 to 10 mins by Michaelis-Menten analysis
row,Structure (SMILES),IC50 [µM]
1,NC1CCc2c(Br)ccc(-c3ccccc3)c2CC1=O (stereo not drawn),0.12
2,NC1CCc2c(Br)ccc(Br)c2CC1=O (stereo not drawn),0.034

# Target: Leucyl-cystinyl aminopeptidase (Homo sapiens) (UniProt Q9UIQ6)
# Assay: Inhibition of IRAP (unknown origin) using L-pNA as substrate
# Chain of Leucyl-cystinyl aminopeptidase (Homo sapiens) (Q9UIQ6 whole entry, looked up): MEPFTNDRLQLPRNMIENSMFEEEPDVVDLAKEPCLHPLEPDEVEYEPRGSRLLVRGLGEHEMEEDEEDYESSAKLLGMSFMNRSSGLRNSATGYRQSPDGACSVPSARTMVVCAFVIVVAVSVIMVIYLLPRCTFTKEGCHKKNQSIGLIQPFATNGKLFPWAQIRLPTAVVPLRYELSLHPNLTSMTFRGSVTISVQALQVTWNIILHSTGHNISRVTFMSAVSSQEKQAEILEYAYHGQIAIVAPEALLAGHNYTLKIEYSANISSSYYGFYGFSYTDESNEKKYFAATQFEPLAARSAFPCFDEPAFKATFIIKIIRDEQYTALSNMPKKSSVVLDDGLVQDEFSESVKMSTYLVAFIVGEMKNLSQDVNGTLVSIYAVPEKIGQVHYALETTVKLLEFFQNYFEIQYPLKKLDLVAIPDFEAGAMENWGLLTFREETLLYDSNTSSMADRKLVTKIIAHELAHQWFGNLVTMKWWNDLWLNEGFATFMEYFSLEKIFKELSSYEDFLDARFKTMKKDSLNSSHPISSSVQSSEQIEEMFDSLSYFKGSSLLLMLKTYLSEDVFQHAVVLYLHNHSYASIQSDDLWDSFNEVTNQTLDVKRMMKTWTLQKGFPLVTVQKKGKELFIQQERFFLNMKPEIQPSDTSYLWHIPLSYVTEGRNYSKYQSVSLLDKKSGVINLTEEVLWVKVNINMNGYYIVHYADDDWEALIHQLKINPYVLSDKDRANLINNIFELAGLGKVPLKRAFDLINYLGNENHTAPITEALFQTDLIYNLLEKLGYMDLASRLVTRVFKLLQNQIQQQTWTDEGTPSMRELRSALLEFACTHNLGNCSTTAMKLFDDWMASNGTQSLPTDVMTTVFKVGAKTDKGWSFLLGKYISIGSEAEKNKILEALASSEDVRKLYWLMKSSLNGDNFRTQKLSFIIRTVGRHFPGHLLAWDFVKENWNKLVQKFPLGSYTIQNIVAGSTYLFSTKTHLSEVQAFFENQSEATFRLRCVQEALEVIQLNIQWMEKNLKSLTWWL
row,Structure (SMILES),IC50 [µM]
1,O=S(=O)(Nc1ccccc1)c1ccccc1 [phenyl(phenylsulfonyl)amine],2.1

# Target: Leucyl-cystinyl aminopeptidase (Homo sapiens) (UniProt Q9UIQ6)
# Assay: Inhibition of IRAP (unknown origin) using L-AMC as substrate
row,Structure (SMILES),IC50 [µM]
1,COc1ccc(C(=O)O)cc1S(=O)(=O)N(C)c1cc(C(F)(F)F)ccc1N1CCN(C)CC1,> 200
2,CC(C)C[C@@H](CP(=O)(O)[C@@H](N)CCc1ccccc1)C(N)=O,0.344
3,CC(C)C[C@H](CP(=O)(O)[C@@H](N)CCc1ccccc1)C(N)=O,0.218
4,"O=C(NO)[C@H](Cc1ccc(Oc2ccccc2)cc1)n1cc(CNS(=O)(=O)c2ccc(-c3ccccn3)s2)nn1 [US20240101542, Compound 23]",0.56
5,"O=C(C[C@H](Cc1ccc(O)cc1)n1nncc1CNS(=O)(=O)c1ccc(-c2ccccn2)s1)NO [US20240101542, Compound 33]",0.084
6,"COc1ccc(C[C@@H](C(=O)NO)n2cc(CNS(=O)(=O)c3ccc(-c4ccccc4)s3)nn2)cc1 [US20240101542, Compound 24]",0.383
7,COc1ccc(C(=O)O)cc1S(=O)(=O)N(C)c1cc(C(F)(F)F)ccc1N1CCCCC1,160
8,C#C[C@H](CP(=O)(O)[C@@H](N)CCc1ccccc1)C(=O)N[C@@H](Cc1ccccc1)C(N)=O,0.002
9,COc1ccc(C(=O)O)cc1S(=O)(=O)Nc1cc(C(F)(F)F)ccc1N1CCCCC1,> 200
10,"COc1ccc(C[C@@H](C(=O)NO)n2cc(CNS(=O)(=O)c3ccc(-c4ccccn4)s3)nn2)cc1 [US20240101542, Compound 25]",0.186
